Test results taken from PubChem BioAssay AID192 (DTP/NCI, 2004).
Values joined by “and” are separate entries in the source; they are usually repeats but may differ in a detail not shown here. Identical values can stand only once. Inconclusive results and toxic doses are left out. Rule for the calls: active = survival T/C of 150% or more; inactive = T/C below 125% in these data.

System: BDF1 mice, B16 melanoma ip, median survival T/C
Experiment: NCI In Vivo Anticancer Drug Screen. Data for tumor model B16 Melanoma (intraperitoneal) in B6D2F1 (BDF1) mice
Details: endpoint: median survival time, higher = longer survival
Protocol: The antitumor activity of compounds was measured in mice bearing transplantable tumors. Survival or tumor size were measured and the results are expressed as the measurement made in the treated group (T) divided by the measurement made in the vehicle treated control group (C). The tumor model used in this assay is B16 Melanoma (intraperitoneal) in B6D2F1 (BDF1) mice

[1] = dose: 100.0 mg/kg/injection, schedule: Q04DX003 (ip), vehicle: Klucel (hydroxypropylcellulose) (HPC)
[2] = dose: 200.0 mg/kg/injection, schedule: Q04DX003 (ip), vehicle: Klucel (hydroxypropylcellulose) (HPC)
[3] = dose: 400.0 mg/kg/injection, schedule: Q04DX003 (ip), vehicle: Klucel (hydroxypropylcellulose) (HPC)
[4] = dose: 50.0 mg/kg/injection, schedule: Q01DX009 (ip), vehicle: saline with Tween-80
[5] = dose: 100.0 mg/kg/injection, schedule: Q01DX009 (ip), vehicle: saline with Tween-80
[6] = dose: 100.0 mg/kg/injection, schedule: Q04DX003 (ip), vehicle: saline
[7] = dose: 1.56 mg/kg/injection, schedule: Q01DX009 (ip), vehicle: Klucel (hydroxypropylcellulose) (HPC)
[8] = dose: 3.12 mg/kg/injection, schedule: Q01DX009 (ip), vehicle: Klucel (hydroxypropylcellulose) (HPC)
[9] = dose: 6.25 mg/kg/injection, schedule: Q01DX009 (ip), vehicle: Klucel (hydroxypropylcellulose) (HPC)
[10] = dose: 25.0 mg/kg/injection, schedule: Q01DX009 (ip), vehicle: Klucel (hydroxypropylcellulose) (HPC)
[11] = dose: 50.0 mg/kg/injection, schedule: Q01DX009 (ip), vehicle: Klucel (hydroxypropylcellulose) (HPC)
[12] = dose: 50.0 mg/kg/injection, schedule: Q01DX009 (ip), vehicle: saline
[13] = dose: 100.0 mg/kg/injection, schedule: Q01DX009 (ip), vehicle: saline
[14] = dose: 200.0 mg/kg/injection, schedule: Q01DX009 (ip), vehicle: saline with Tween-80

Measured: T/C

Cc1ccc(S(=O)(=O)[O][Pb]([CH3])([CH3])[CH3])cc1
inactive: dose: 0.18 mg/kg/injection, schedule: Q01DX009 (ip), vehicle: saline 97 % of control | dose: 0.37 mg/kg/injection, schedule: Q01DX009 (ip), vehicle: saline 92 % of control | dose: 0.75 mg/kg/injection, schedule: Q01DX009 (ip), vehicle: saline 104 % of control | dose: 1.5 mg/kg/injection, schedule: Q01DX009 (ip), vehicle: saline 97 % of control

CC(Cc1ccccc1)NN (stereo not drawn)
inactive: dose: 0.97 mg/kg/injection, schedule: Q01DX009 (ip), vehicle: saline 110 % of control | dose: 1.95 mg/kg/injection, schedule: Q01DX009 (ip), vehicle: saline 112 % of control | dose: 3.9 mg/kg/injection, schedule: Q01DX009 (ip), vehicle: saline 102 % of control | dose: 7.81 mg/kg/injection, schedule: Q01DX009 (ip), vehicle: saline 112 % of control

CN1CCN=C1c1ccc(NC(=O)c2ccc(C(=O)Nc3ccc(C4=NCCN4C)cc3)c(N)c2)cc1
inactive: dose: 1.25 mg/kg/injection, schedule: Q01DX009 (ip), vehicle: saline 115 % of control | dose: 1.25 mg/kg/injection, schedule: Q04DX003 (ip), vehicle: saline 89 % of control | dose: 2.5 mg/kg/injection, schedule: Q01DX009 (ip), vehicle: saline 117 % of control | dose: 2.5 mg/kg/injection, schedule: Q04DX003 (ip), vehicle: saline 94 % of control | dose: 5.0 mg/kg/injection, schedule: Q01DX009 (ip), vehicle: saline 115 % of control | dose: 5.0 mg/kg/injection, schedule: Q04DX003 (ip), vehicle: saline 100 % of control

CCCCCCCCCCCCNC(=O)CCl
inactive: dose: 100.0 mg/kg/injection, schedule: Q01DX009 (ip), vehicle: Klucel (hydroxypropylcellulose) (HPC) 104 % of control | dose: 200.0 mg/kg/injection, schedule: Q01DX009 (ip), vehicle: Klucel (hydroxypropylcellulose) (HPC) 102 % of control | dose: 400.0 mg/kg/injection, schedule: Q01DX009 (ip), vehicle: Klucel (hydroxypropylcellulose) (HPC) 100 % of control

O=C(Nc1ccccc1Cl)Oc1ccc(-c2ccccc2)cc1Br
inactive: [1] 100 % of control | [2] 103 % of control | [3] 93 % of control

CCOC(=O)C(C)(Br)C(=O)OCC
inactive: dose: 25.0 mg/kg/injection, schedule: Q01DX009 (ip), vehicle: saline with Tween-80 110 % of control | dose: 25.0 mg/kg/injection, schedule: Q04DX003 (ip), vehicle: saline 115 % of control | [4] 102 % of control | dose: 50.0 mg/kg/injection, schedule: Q04DX003 (ip), vehicle: saline 118 % of control | [5] 95 % of control | [6] 118 % of control

CC[C@@H](C(=O)[C@@H](C)[C@@H](O)[C@H](C)CCc1ccc(C)c(O)c1C(=O)O)[C@H]1O[C@](CC)([C@H]2CC[C@](O)(CC)[C@H](C)O2)C[C@@H]1C
inactive: [7] 111 % of control | [8] 102 % of control | [9] 111 % of control

CNc1ccc(/C=C2\C=Cc3ccccc32)cc1
inactive: dose: 12.5 mg/kg/injection, schedule: Q01DX009 (ip), vehicle: gum acacia 104 % of control | [10] 109 % of control | dose: 25.0 mg/kg/injection, schedule: Q01DX009 (ip), vehicle: gum acacia 91 % of control | [11] 112 % of control | dose: 50.0 mg/kg/injection, schedule: Q01DX009 (ip), vehicle: gum acacia 102 % of control

Nc1nc2c(ncn2C2OC(CO)C(O)C2N)c(=O)[nH]1 (stereo not drawn)
inactive: dose: 3.12 mg/kg/injection, schedule: Q01DX009 (ip), vehicle: saline 95 % of control and 110 % of control | dose: 6.25 mg/kg/injection, schedule: Q01DX009 (ip), vehicle: saline 101 % of control and 102 % of control and 104 % of control | dose: 12.5 mg/kg/injection, schedule: Q01DX009 (ip), vehicle: saline 106 % of control and 107 % of control and 110 % of control | dose: 25.0 mg/kg/injection, schedule: Q01DX005 (ip), vehicle: saline with Tween-80 104 % of control | dose: 25.0 mg/kg/injection, schedule: Q01DX009 (ip), vehicle: saline 89 % of control and 101 % of control and 112 % of control | dose: 35.0 mg/kg/injection, schedule: Q01DX005 (ip), vehicle: saline with Tween-80 104 % of control | [12] 89 % of control and 101 % of control | dose: 55.0 mg/kg/injection, schedule: Q01DX005 (ip), vehicle: saline with Tween-80 95 % of control | dose: 80.0 mg/kg/injection, schedule: Q01DX005 (ip), vehicle: saline with Tween-80 104 % of control | [13] 96 % of control

Cc1ccc(S(=O)(=O)N2CCCC(Br)(Br)C(=O)c3ccccc32)cc1
inactive: dose: 25.0 mg/kg/injection, schedule: Q04DX003 (ip), vehicle: Klucel (hydroxypropylcellulose) (HPC) 95 % of control | dose: 50.0 mg/kg/injection, schedule: Q04DX003 (ip), vehicle: Klucel (hydroxypropylcellulose) (HPC) 96 % of control | [1] 93 % of control

NC(=O)C(Cl)(Cl)Cl
inactive: [5] 105 % of control | [14] 96 % of control | dose: 400.0 mg/kg/injection, schedule: Q01DX009 (ip), vehicle: saline with Tween-80 98 % of control

CCOC(=O)C1(C)OCCO1
inactive: [6] 95 % of control | dose: 200.0 mg/kg/injection, schedule: Q04DX003 (ip), vehicle: saline 104 % of control | dose: 400.0 mg/kg/injection, schedule: Q04DX003 (ip), vehicle: saline 104 % of control

O=c1[nH]c2ccccc2nc1CBr
inactive: dose: 0.38 mg/kg/injection, schedule: Q01DX009 (ip), vehicle: saline with Tween-80 104 % of control | dose: 0.75 mg/kg/injection, schedule: Q01DX009 (ip), vehicle: saline with Tween-80 100 % of control | dose: 1.5 mg/kg/injection, schedule: Q01DX009 (ip), vehicle: saline with Tween-80 104 % of control | dose: 3.0 mg/kg/injection, schedule: Q01DX009 (ip), vehicle: saline with Tween-80 92 % of control

O=S(CCCl)CCCl
inactive: [7] 95 % of control and 107 % of control | [8] 94 % of control and 103 % of control | [9] 111 % of control | dose: 12.5 mg/kg/injection, schedule: Q01DX009 (ip), vehicle: Klucel (hydroxypropylcellulose) (HPC) 99 % of control | [10] 89 % of control | [11] 91 % of control

NC(Cn1ccc(=O)c(O)c1)C(=O)O (stereo not drawn)
inactive: [12] 109 % of control | dose: 100.0 mg/kg/injection, schedule: Q01DX007 (ip), vehicle: saline with Tween-80 98 % of control | [13] 107 % of control | dose: 200.0 mg/kg/injection, schedule: Q01DX007 (ip), vehicle: saline with Tween-80 88 % of control | dose: 200.0 mg/kg/injection, schedule: Q01DX009 (ip), vehicle: saline 109 % of control | dose: 294.0 mg/kg/injection, schedule: Q01DX007 (ip), vehicle: saline with Tween-80 117 % of control | dose: 300.0 mg/kg/injection, schedule: Q01DX007 (ip), vehicle: saline with Tween-80 86 % of control | dose: 367.5 mg/kg/injection, schedule: Q01DX007 (oral), vehicle: saline with Tween-80 103 % of control | dose: 420.0 mg/kg/injection, schedule: Q01DX007 (ip), vehicle: saline with Tween-80 96 % of control | dose: 525.0 mg/kg/injection, schedule: Q01DX007 (oral), vehicle: saline with Tween-80 96 % of control | dose: 750.0 mg/kg/injection, schedule: Q01DX007 (oral), vehicle: saline with Tween-80 98 % of control

CCN1/C(=C/C(C)=C/c2sc3ccccc3[n+]2CC)Sc2ccccc21
inactive: dose: 0.03 mg/kg/injection, schedule: Q01DX009 (ip), vehicle: saline with Tween-80 104 % of control | dose: 0.05 mg/kg/injection, schedule: Q01DX009 (ip), vehicle: saline with Tween-80 100 % of control | dose: 0.1 mg/kg/injection, schedule: Q01DX009 (ip), vehicle: saline with Tween-80 100 % of control

COc1cccc(CN(C)CCC(=O)O)c1
inactive: [1] 104 % of control | [2] 102 % of control | [3] 101 % of control

O=C1C=C(c2ccccc2)C(O)(c2ccccc2)C1 (stereo not drawn)
inactive: [4] 97 % of control | [5] 97 % of control | [14] 88 % of control
